The record followed here is ChEMBL document CHEMBL5726701, “Pyrazine derivatives as phosphatidylinositol 3-kinase inhibitors” (2018).

pIC50: −log10 of the molar value.

In this experiment the target is Phosphatidylinositol 3-kinase catalytic subunit type 3 (Homo sapiens, UniProt Q8NEB9). Nature of the experiment: Kinase Glo Luminescent Kinase Assay: PI 3-Kinase Alpha (A), Pb 3-Kinase Beta (B), Vps34 (C), PI 4-Kinase Beta (D):The luminescence-based ATP detection reagent KinaseGlo was obtained from Promega, (Cat. No. V6714, Lot No. 236161) through Catalys, Wallisellen, Switzerland. L-alpha-phosphatidylinositol (PI, liver, bovine) was obtained from Avanti Polar Lipid (Cat. No. 840042C, Lot#LPI-274), Phosphatidylinositol-4,5-bisphosphate (PIP(4,5)2) was also obtained from Avanti Polar Lipid (Cat. No. 840046X). L-α-Phosphatidylserine (PS) was obtained from Avanti Polar Lipid (Cat. No. 840032C), n-Octylglucoside from Avanti Polar Lipid (Cat. No. 10634425001). Luminescence is a well established readout to determine ATP concentrations and can thus be used to follow the activity of many kinases regardless of their substrate. The Kinase Glo Luminescent Kinase Assay (Promega, Madison/WI, USA) is a homogeneous HTS method of measuring kinase activity by quantifying the amount of ATP remaining in solution following a kinase reaction.
Sequence of Phosphatidylinositol 3-kinase catalytic subunit type 3 (Q8NEB9 whole entry): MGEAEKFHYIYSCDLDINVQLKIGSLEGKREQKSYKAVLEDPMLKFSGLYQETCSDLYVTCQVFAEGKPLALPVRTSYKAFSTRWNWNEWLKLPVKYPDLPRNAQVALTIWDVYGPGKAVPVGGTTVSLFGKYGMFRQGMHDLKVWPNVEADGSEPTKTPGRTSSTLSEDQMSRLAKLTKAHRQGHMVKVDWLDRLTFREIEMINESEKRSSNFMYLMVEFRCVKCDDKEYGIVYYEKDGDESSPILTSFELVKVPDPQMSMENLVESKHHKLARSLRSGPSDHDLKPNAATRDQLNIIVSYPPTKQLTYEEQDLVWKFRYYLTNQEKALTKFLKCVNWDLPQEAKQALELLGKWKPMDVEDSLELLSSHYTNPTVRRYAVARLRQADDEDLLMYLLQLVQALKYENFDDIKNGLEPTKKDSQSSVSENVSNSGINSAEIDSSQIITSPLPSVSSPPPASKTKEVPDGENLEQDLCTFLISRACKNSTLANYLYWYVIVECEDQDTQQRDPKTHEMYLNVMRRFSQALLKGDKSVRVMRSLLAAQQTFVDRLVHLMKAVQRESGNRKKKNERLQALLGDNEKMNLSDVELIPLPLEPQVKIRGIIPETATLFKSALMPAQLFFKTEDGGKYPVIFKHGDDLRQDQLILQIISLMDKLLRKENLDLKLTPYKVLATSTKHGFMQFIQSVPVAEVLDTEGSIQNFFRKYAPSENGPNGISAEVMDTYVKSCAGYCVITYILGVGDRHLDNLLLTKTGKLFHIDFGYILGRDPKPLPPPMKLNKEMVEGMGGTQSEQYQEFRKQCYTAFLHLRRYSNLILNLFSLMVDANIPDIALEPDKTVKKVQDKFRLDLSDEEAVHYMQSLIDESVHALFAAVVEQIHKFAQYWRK
For `Cc1ccc(S(=O)(=O)N[C@H]2CC[C@H](O)CC2)cc1-c1cncc(-c2csc(CN3CCOCC3)c2)n1`, the negative-log IC50 (pIC50) is 5.07.

Regarding `Cc1ccc(S(=O)(=O)NC2CC3(CC(O)C3)C2)cc1-c1cncc(-c2cn(C)nc2C)n1` (centres undefined), the pIC50 is 5.03.

Take `Cc1cc(-c2cncc(-c3cc(S(=O)(=O)NC[C@H]4C[C@@H](O)C4)ccc3C)n2)n(C)n1`: the pIC50 was 5.61.

The molecule `Cc1ccc(S(=O)(=O)NC[C@H]2C[C@@H](O)C2)cc1-c1cncc(-c2cn(C)nc2C)n1` had a negative-log IC50 (pIC50) of 5.36.

By pIC50 is commonly meant the IC50 on a negative log10 scale, so that one unit is a factor of ten.
